# Structures can show the parent of a compound that is named as a salt.
# Target: T1, HPK1 protein (Homo sapiens, UniProt Q92918)
# T1 construct: host or cells: Jurkat cells
# Assay: Detection of HPK1 protein expression level in Jurkat cells (24 h)
# Type: cell-based
# Details: 24 hours incubation
# Procedure: Test example 4: Detection of HPK1 protein expression level in Jurkat cells (24 h)
# Jurkat cells from ATCC were placed in a RPMI-1640 complete medium (supplemented with 10% FBS and 1% penicillin-streptomycin solution) and cultured at 37°C and 5% CO2. The cells in the logarithmic growth phase were collected, the cell density was adjusted to 5 × 10^5 cells/well with the culture medium, and the cells were added to a 6-well cell culture plate at a volume of 1 mL/well. The compound to be tested was prepared to 2-fold the final concentration, 1 mL of the compounds at different concentrations were added to administration wells, a medium containing 0.2% DMSO was added to control wells, and the plate was incubated at 37°C and 5% CO2 for 24 hours. The cells were collected into a 1.5 mL centrifuge tube, 30 µL of RIPA lysis buffer (containing 1X protease inhibitor cocktail) was added, and the cells were lysed on ice for 15 minutes and centrifuged at 12000 rpm/min at 4°C for 10 minutes. The supernatant was collected and the protein content was determined using the BCA method. The protein sample to be tested was diluted to 0.2 mg/mL, HPK1 was detected using a fully automated protein expression quantitative analyser (ProteinSimple), and the internal reference protein was β-actin (all antibodies were from CST). The software (Compass for SW) of the fully automated protein expression quantitative analyser was used to process the raw data and calculate the peak area after internal reference normalisation and the HPK1 degradation rate relative to the control group. The HPK1 degradation rate was calculated according to formula 4-1, where Aadministration well is the relative peak area of the administration group after internal reference normalisation, and Acontrol well is the relative peak area of the vehicle control group after internal reference normalisation. DC50 values were calculated using a four-parameter non-linear fitting model in Graphpad 8.3.0 software. HPK1_degradation % = 100−(Aadministration well/Acontrol well×100%) [formula] Table 4-1 Degradation activity of test compounds against HPK1 protein in Jurkat cells (24 h)
# T1 sequence (Q92918 whole entry): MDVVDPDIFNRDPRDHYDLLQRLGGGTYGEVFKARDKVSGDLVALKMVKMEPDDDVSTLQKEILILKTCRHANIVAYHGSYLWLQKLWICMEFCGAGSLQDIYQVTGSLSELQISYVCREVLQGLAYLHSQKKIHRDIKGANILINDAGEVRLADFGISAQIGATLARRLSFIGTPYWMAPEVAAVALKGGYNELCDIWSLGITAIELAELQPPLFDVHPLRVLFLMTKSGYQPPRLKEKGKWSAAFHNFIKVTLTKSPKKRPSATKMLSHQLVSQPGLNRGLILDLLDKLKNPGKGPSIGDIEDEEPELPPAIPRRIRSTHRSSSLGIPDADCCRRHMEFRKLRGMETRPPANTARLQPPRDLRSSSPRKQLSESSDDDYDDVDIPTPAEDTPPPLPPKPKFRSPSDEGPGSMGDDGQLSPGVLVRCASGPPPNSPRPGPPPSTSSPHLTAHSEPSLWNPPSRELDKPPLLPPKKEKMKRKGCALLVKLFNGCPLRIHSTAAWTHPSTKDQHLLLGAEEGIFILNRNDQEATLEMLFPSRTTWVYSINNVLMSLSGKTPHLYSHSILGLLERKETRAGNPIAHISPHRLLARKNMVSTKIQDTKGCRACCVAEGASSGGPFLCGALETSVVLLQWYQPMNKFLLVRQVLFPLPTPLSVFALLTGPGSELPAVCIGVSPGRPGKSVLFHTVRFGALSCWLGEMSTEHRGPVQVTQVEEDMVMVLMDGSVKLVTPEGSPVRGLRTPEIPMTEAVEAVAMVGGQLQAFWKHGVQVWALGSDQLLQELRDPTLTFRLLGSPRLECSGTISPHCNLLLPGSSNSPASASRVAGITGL
row,Structure (SMILES),DC50 [nM]
1,CN(C)Cc1nc(Nc2ccc(-c3cnc4cc(F)ccn34)c3c2C(=O)NC3)ccc1C1CCN(CC2CCN(c3ccc(N4CCC(=O)NC4=O)c(F)c3)CC2)CC1 [Trifluoroacetic acid salt of compound 9],< 20

# Same assay, conditions: 24 hours incubation, read-out: DC50
row,DC50 [nM],Structure (SMILES)
1,< 20,O=C1CCN(c2cc3c(cc2F)N2CCN(CC4CC5(CCN(c6ccc(Nc7ccc(-c8cnc9cc(F)ccn89)c8c7C(=O)NC8)nc6)CC5)C4)C[C@H]2CC3)C(=O)N1 [Compound 16]

# Target: T2, HPK1 kinase (Homo sapiens, UniProt Q92918)
# T2 construct: purchased Carna 07-410
# T2 sequence (Q92918 1-346 limits assumed): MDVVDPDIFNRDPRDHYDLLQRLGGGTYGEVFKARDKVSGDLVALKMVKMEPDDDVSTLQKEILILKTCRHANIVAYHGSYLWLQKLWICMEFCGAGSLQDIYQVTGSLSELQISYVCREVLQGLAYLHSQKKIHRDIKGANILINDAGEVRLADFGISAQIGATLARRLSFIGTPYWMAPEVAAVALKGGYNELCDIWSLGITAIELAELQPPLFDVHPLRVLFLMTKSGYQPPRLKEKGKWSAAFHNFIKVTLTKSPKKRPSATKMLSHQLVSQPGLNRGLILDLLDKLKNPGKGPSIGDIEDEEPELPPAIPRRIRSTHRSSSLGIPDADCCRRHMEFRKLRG
# Assay: HPK1 kinase assay (1 mM ATP)
# Type: biochemical
# Details: not given
# Procedure: Test example 5: HPK1 kinase assay (1 mM ATP)
# The kinase HPK1 (Carna, Cat.No 07-410) was prepared into 2× kinase solution using 1× kinase buffer. The substrate Fluorescein-PKC (Invitrogen, Cat. No. PV3506) and ATP (working concentration: 1 mM) (Sigma, Cat. No. 2383-5G) were prepared into 2× substrate solution using 1×kinase buffer. The detection reagent was diluted to 2-fold the final concentration using an antibody diluent. 100 nL of compounds at different concentrations and 5 µL of kinase solution were added to each well of a 384-well plate, and the mixture was incubated at room temperature for 10 minutes. After the incubation was completed, 5 µL of substrate solution was added to each well, and the resulting mixture was reacted at room temperature for 90 minutes. After the reaction was completed, 10 µL of detection reagent was added to each well to terminate the reaction, and the mixture was incubated at room temperature for 60 minutes. Fluorescence readings were detected using an Envision instrument with excitation at 320 nm and emission at 520 nm and 495 nm. IC50 value was calculated using XLFit excel add-in version 5.4.0.8 software. The calculation formula of the inhibition rate was shown in formula 5-1, wherein max is the Ratio of the DMSO control, min is the Ratio of the negative control without enzyme, and sample is the Ratio of the compound. Ratio = RFU520nm /RFU495nm [formula] Inhibition% = (max−sample)/(max−min) × 100% [formula] Table 5-1 Inhibitory activity of test compounds against HPK1 kinase
row,Structure (SMILES),IC50 [nM]
1,CN(C)Cc1nc(Nc2ccc(-c3cnc4cc(F)ccn34)c3c2C(=O)NC3)ccc1C1CCN(CC2CCN(c3ccc(N4CCC(=O)NC4=O)c(F)c3)CC2)CC1 [Trifluoroacetic acid salt of compound 9],< 50
2,CN(C)Cc1nc(Nc2ccc(-c3cnc4cc(F)ccn34)c3c2C(=O)NC3)ccc1N1CCC(CN2CCN(c3ccc(N4CCC(=O)NC4=O)c(F)c3)CC2)CC1 [Trifluoroacetic acid salt of compound 12],< 50
3,O=C1CCC(c2ccc(N3CCC(CN4CCC(c5ccc(Nc6ccc(-c7cnc8cc(F)ccn78)c7c6C(=O)NC7)nc5)CC4)CC3)cc2F)C(=O)N1 (stereo not shown) [Trifluoroacetic acid salt of compound 17],< 50
4,O=C1CCN(c2ccc(N3CCC(CN4CCC(c5ccc(Nc6ccc(-c7cnc8cc(F)ccn78)c7c6C(=O)NC7)nc5)CC4)CC3)cc2F)C(=O)N1 [Trifluoroacetic acid salt of compound 18],< 50
5,O=C1CCN(c2cc3c(cc2F)N2CCN(CC4CN(c5ccc(Nc6ccc(-c7cnc8cc(F)ccn78)c7c6C(=O)NC7)nc5)C4)C[C@H]2CC3)C(=O)N1 [Trifluoroacetic acid salt of compound 21],< 50
6,O=C1CCN(c2cc3c(cc2F)N2CCN(CC4CN(c5ccc(Nc6ccc(-c7cnc8cc(F)ccn78)c7c6C(=O)NC7)nc5)C4)C[C@@H]2CC3)C(=O)N1 [Trifluoroacetic acid salt of compound 22],< 50
7,N#Cc1ccn2c(-c3ccc(Nc4ccc(N5CCC(N6CCN7c8cc(F)c(N9CCC(=O)NC9=O)cc8CC[C@H]7C6)CC5)cn4)c4c3CNC4=O)cnc2c1 [Trifluoroacetic acid salt of compound 45],< 50

# Same assay, conditions: ATP working concentration: 1 mM
row,Structure (SMILES),IC50 [nM]
1,N#Cc1ccn2c(-c3ccc(Nc4ccc(N5CCC6(CC5)CC(N5CCN7c8cc(F)c(N9CCC(=O)NC9=O)cc8CC[C@@H]7C5)C6)cn4)c4c3CNC4=O)cnc2c1 [Compound 48],< 50
2,CN(C)Cc1nc(Nc2ccc(-c3cnc4cc(F)ccn34)c3c2C(=O)NC3)ccc1N1CCC(CN2CCN3c4cc(F)c(N5CCC(=O)NC5=O)cc4CC[C@H]3C2)CC1 [Trifluoroacetic acid salt of compound 10],< 50
3,CN(C)Cc1nc(Nc2ccc(-c3cnc4cc(F)ccn34)c3c2C(=O)NC3)ccc1N1CCC(CN2CCN3c4cc(F)c(N5CCC(=O)NC5=O)cc4CC[C@@H]3C2)CC1 [Trifluoroacetic acid salt of compound 11],< 50
4,O=C1CCN(c2cc3c(cc2F)N2CCN(CC4CCN(c5ccc(Nc6ccc(-c7cnc8cc(F)ccn78)c7c6C(=O)NC7)nc5CN5CC(F)(F)C5)CC4)C[C@H]2CC3)C(=O)N1 [Trifluoroacetic acid salt of compound 23],< 50
5,O=C1CCN(c2cc3c(cc2F)N2CCN(CC4CCN(c5ccc(Nc6ccc(-c7cnc8cc(F)ccn78)c7c6C(=O)NC7)nc5CN5CC(F)(F)C5)CC4)C[C@@H]2CC3)C(=O)N1 [Trifluoroacetic acid salt of compound 24],< 50
6,O=C1CCN(c2cc3c(cc2F)N2CCN(CC4CCN(c5ccc(Nc6ccc(-c7cnc8cc(F)ccn78)c7c6C(=O)NC7)nc5CN5CCC(F)(F)C5)CC4)CC2CC3)C(=O)N1 (stereo not shown) [Trifluoroacetic acid salt of compound 25],< 50
7,O=C1CCN(c2cc3c(cc2F)N2CCN(CC4CCN(c5ccc(Nc6ccc(-c7cnc8cc(F)ccn78)c7c6C(=O)NC7)nc5CN5CCC(F)(F)C5)CC4)C[C@H]2CC3)C(=O)N1 [Trifluoroacetic acid salt of compound 28],< 50
8,O=C1CCN(c2cc3c(cc2F)N2CCN(CC4CCN(c5ccc(Nc6ccc(-c7cnc8cc(F)ccn78)c7c6C(=O)NC7)nc5CN5CC[C@H](F)C5)CC4)C[C@H]2CC3)C(=O)N1 [Trifluoroacetic acid salt of compound 29],< 50
9,O=C1CCN(c2cc3c(cc2F)N2CCN(CC4CCN(c5ccc(Nc6ccc(-c7cnc8cc(F)ccn78)c7c6C(=O)NC7)nc5CN5CC[C@@H](F)C5)CC4)C[C@H]2CC3)C(=O)N1 [Trifluoroacetic acid salt of compound 30],< 50
10,O=C1CC[C@H](NC(=O)c2cc3c(cc2F)N2CCN(C4CC5(CCN(c6ccc(Nc7ccc(-c8cnc9cc(F)ccn89)c8c7C(=O)NC8)nc6)CC5)C4)C[C@@H]2CC3)C(=O)N1 [Trifluoroacetic acid salt of compound 33],< 50
11,N#Cc1ccn2c(-c3ccc(Nc4ccc(N5CCC6(CC5)CC(N5CCN7c8cc(F)c(N9CCC(=O)NC9=O)cc8CC[C@H]7C5)C6)cn4)c4c3CNC4=O)cnc2c1 [Trifluoroacetic acid salt of compound 43],< 50
12,O=C1CCN(c2cc3c(cc2F)N2CCN(C4CCC5(CC4)CCN(c4ccc(Nc6ccc(-c7cnc8cc(F)ccn78)c7c6C(=O)NC7)nc4)CC5)C[C@H]2CC3)C(=O)N1 [Trifluoroacetic acid salt of compound 44],< 50
13,N#Cc1ccn2c(-c3ccc(Nc4ccc(N5CCC6(CCC(N7CCN8c9cc(F)c(N%10CCC(=O)NC%10=O)cc9CC[C@@H]8C7)CC6)CC5)cn4)c4c3CNC4=O)cnc2c1 [Trifluoroacetic acid salt of compound 46],< 50
14,O=C1CCN(c2cc3c(cc2F)N2CCN(C4CCC5(CC4)CCN(c4ccc(Nc6ccc(-c7cnc8cc(F)ccn78)c7c6C(=O)NC7)nc4)CC5)C[C@@H]2CC3)C(=O)N1 [Trifluoroacetic acid salt of compound 47],< 50

# Same assay, conditions: ATP working concentration: 1 mM; read-out: IC50
row,IC50 [nM],Structure (SMILES)
1,< 50,O=C1CCN(c2cc3c(cc2F)N2CCN(CC4CC5(CCN(c6ccc(Nc7ccc(-c8cnc9cc(F)ccn89)c8c7C(=O)NC8)nc6)CC5)C4)C[C@H]2CC3)C(=O)N1 [Compound 16]
2,< 50,CN(C)Cc1nc(Nc2ccc(-c3cnc4cc(F)ccn34)c3c2C(=O)NC3)ccc1C1CCN(CC2(F)CCN(c3ccc(N4CCC(=O)NC4=O)c(F)c3)CC2)CC1 [Compound 38]

row,Structure (SMILES),IC50 [nM]
1,"O=C1CCC(c2ccc(N3CCN(CC4CCN(c5ccc(Nc6ccc(-c7cnc8cc(F)ccn78)c7c6C(=O)NC7)nc5)CC4)CC3)cc2F)C(=O)N1 (single isomer, unassigned) [Compound 1-2]",< 50

# Tested on: not listed separately
# Assay: Pharmacokinetic test in mice
# Type: in vivo, ICR mice
# Details: mouse, plasma, IV, 1 mg/kg
# Procedure: Test example 6: Pharmacokinetic test in mice
# Experimental objective: In this experiment, a single dose of test substances was administered to ICR mice intravenously and intragastrically, the concentrations of the test compounds in plasma of mice were measured, and the pharmacokinetic characteristics and bioavailability of the test compounds in mice were evaluated.
# Experimental animals: Male ICR mice, 20-35 g, purchased from Chengdu Dossy Experimental Animals Co., Ltd. (SCXK (CHUAN) 2020-030).
# Experimental method: On the day of the experiment, the ICR mice were randomly grouped according to their body weights. The animals were fasted but with water available overnight before the administration, and fed 4 h after the administration.
# Sampling: Blood was taken from the orbits of the mice at specified time points, and placed in an EDTAK2 centrifuge tube. Centrifugation was performed at 5000 rpm at 4°C for 10 min, and the plasma was collected.
# Time points for plasma collection in G1 and G1-2 groups: 0, 5 min, 15 min, 30 min, 1 h, 2 h, 4 h, 7 h, and 24 h.
# Time points for plasma collection in G2 and G2-2 groups: 0, 5 min, 15 min, 30 min, 1 h, 2 h, 4 h, 7 h, and 24 h.
# Before analysis and detection, all the samples were stored at -60°C or lower. The samples were analysed quantitatively by LC-MS/MS. Table 6-1 PK data of test compound drug in mice
Structure (SMILES),clearance [mL/min/kg],half-life [h]
N#Cc1ccn2c(-c3ccc(Nc4ccc(N5CCC6(CC5)CC(N5CCN7c8cc(F)c(N9CCC(=O)NC9=O)cc8CC[C@@H]7C5)C6)cn4)c4c3CNC4=O)cnc2c1 [Compound 48],1.67,5.3

# Same assay, conditions: mouse, plasma, po, i. g., 10 mg/kg
Structure (SMILES),AUC [ng·h/mL],Cmax [ng/mL],half-life [h]
N#Cc1ccn2c(-c3ccc(Nc4ccc(N5CCC6(CC5)CC(N5CCN7c8cc(F)c(N9CCC(=O)NC9=O)cc8CC[C@@H]7C5)C6)cn4)c4c3CNC4=O)cnc2c1 [Compound 48],25900,2300,4.9

# — EP4810494A1, “HPK1 DEGRADATION AGENT AND USE THEREOF IN FIELD OF MEDICINE” (Haisco Pharmaceutical Group Co., Ltd., priority 2023, dated 2025)
